# The supplement of paper PMC10307832
# Experiments:
# Assay in all cases: relative viability (nuclei count vs DMSO), 5 days (fraction); higher = more cells survive
# Avagacestat = compound: NC(=O)[C@@H](CCC(F)(F)F)N(Cc1ccc(-c2ncon2)cc1F)S(=O)(=O)c1ccc(Cl)cc1 [Avagacestat]
# How it was run: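 Only plates meeting two conditions passed: control CV below 25% and at least one doubling. Lung cancer cell lines, kept overnight at 37 °C in 1536-well plates, were pinned with five library-drug doses (not always all listed) √10 apart on vehicle-anchored plates and grown 5 days without medium change. A one-step fix, permeabilisation and Hoechst stain preceded 4× imaging and MetaXpress nuclear counting. Viability equals treated-well nuclei divided by vehicle-well nuclei, as the median over plates.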
# Avagacestat + Navitoclax = compound: NC(=O)[C@@H](CCC(F)(F)F)N(Cc1ccc(-c2ncon2)cc1F)S(=O)(=O)c1ccc(Cl)cc1 [Avagacestat] + CC1(C)CCC(c2ccc(Cl)cc2)=C(CN2CCN(c3ccc(C(=O)NS(=O)(=O)c4ccc(N[C@H](CCN5CCOCC5)CSc5ccccc5)c(S(=O)(=O)C(F)(F)F)c4)cc3)CC2)C1 [Navitoclax] (partner 0.5 µM)
# How it was run: (§1)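 Cells from lung cancer lines were seeded into 1536-well plates and, one day later, dosed by pin tool. Treatments were either a single drug or a fixed dose of an anchor drug with five library-drug doses (not always all listed) in √10 steps. After 5 days, nuclei were stained in a one-step fixation (final 0.05% Triton X-100, 1% formaldehyde, 1 ug/ml Hoechst) and counted on 4× images, and relative viability is the treated-to-vehicle nuclei ratio, as the median of duplicate plates.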
# Avagacestat + Tozasertib = compound: NC(=O)[C@@H](CCC(F)(F)F)N(Cc1ccc(-c2ncon2)cc1F)S(=O)(=O)c1ccc(Cl)cc1 [Avagacestat] + Cc1cc(Nc2cc(N3CCN(C)CC3)nc(Sc3ccc(NC(=O)C4CC4)cc3)n2)n[nH]1 [Tozasertib] (partner 0.1 µM)
# How it was run: as §1
# Avagacestat + Phenformin = compound: NC(=O)[C@@H](CCC(F)(F)F)N(Cc1ccc(-c2ncon2)cc1F)S(=O)(=O)c1ccc(Cl)cc1 [Avagacestat] + N=C(N)NC(=N)NCCc1ccccc1 [Phenformin] (partner 250 µM)
# How it was run: as §1
Cell Line,relative viability (Avagacestat; 0.08 µM),relative viability (Avagacestat; 0.253 µM),relative viability (Avagacestat; 0.8 µM),relative viability (Avagacestat; 2.53 µM),relative viability (Avagacestat; 8 µM),relative viability (Avagacestat + Navitoclax; first compound 0.08 µM),relative viability (Avagacestat + Navitoclax; first compound 0.253 µM),relative viability (Avagacestat + Navitoclax; first compound 0.8 µM),relative viability (Avagacestat + Navitoclax; first compound 2.53 µM),relative viability (Avagacestat + Navitoclax; first compound 8 µM),relative viability (Avagacestat + Tozasertib; first compound 0.08 µM),relative viability (Avagacestat + Tozasertib; first compound 0.253 µM),relative viability (Avagacestat + Tozasertib; first compound 0.8 µM),relative viability (Avagacestat + Tozasertib; first compound 2.53 µM),relative viability (Avagacestat + Tozasertib; first compound 8 µM),relative viability (Avagacestat + Phenformin; first compound 0.08 µM),relative viability (Avagacestat + Phenformin; first compound 0.253 µM),relative viability (Avagacestat + Phenformin; first compound 0.8 µM),relative viability (Avagacestat + Phenformin; first compound 2.53 µM),relative viability (Avagacestat + Phenformin; first compound 8 µM)
HARA,0.891,1.17,1.06,0.963,0.989,1.39,1.27,1.23,1.17,1.2,0.0944,0.0986,0.0937,0.0995,0.145,0.486,0.516,0.42,0.486,0.42
HCC-15,1.17,1.19,1.13,1,0.946,0.87,0.806,0.799,0.732,0.591,0.404,0.461,0.434,0.337,0.167,0.617,0.592,0.512,0.491,0.378
HCC-44,0.999,0.999,0.997,0.968,0.935,1.14,1.13,0.948,0.76,0.874,1.03,1.27,0.976,0.146,0.755,0.167,0.171,0.198,0.21,0.195
HCC-78,1.07,1.01,1.18,0.801,0.915,0.884,0.818,0.791,0.665,0.68,0.404,0.473,0.208,0.396,0.377,0.71,0.763,0.811,0.66,0.724
HCC-366,1.04,1.17,1.07,1.11,1.11,1.23,1.48,1,1.09,1.01,0.0969,0.172,0.0909,0.0683,0.0694,0.654,0.709,0.599,0.562,0.594
HCC-827,1.1,1.09,1.11,1.09,1.11,1.12,1.02,1.11,1.07,1.02,0.452,0.434,0.506,0.381,0.462,0.478,0.397,0.509,0.405,0.35
HOP-62,1.15,1.17,1.03,0.991,0.895,1.26,1.12,0.962,0.978,0.895,0.357,0.353,0.373,0.363,0.335,0.874,0.775,0.76,0.657,0.492
LC-2-ad,1.02,0.985,1.11,1.03,0.96,0.652,0.528,0.534,0.423,0.428,0.453,0.384,0.427,0.197,0.367,0.577,0.651,0.713,0.602,0.554
